Melting point data for 87 compounds are collected here from a melting point compilation (Tetko et al.).

A word on the melting point: it is the temperature of the solid-liquid transition.

In the case of `Cc1nn(CC(C)C)c(Cl)c1C(=O)O`, the melting point lay within 128 to 130 °C.

The compound `CC(Oc1ccc2c(c1)CCC2)C(=O)O` (configuration not stated) gave a melting point of 103 to 105 °C.

`CNc1cc(Cl)ncn1`: the melting point was in the range of 138 to 140 °C.

Turning to `CN1CCN(c2ccc(N)nc2)CC1`, the melting point was in the range of 119 to 121 °C.

Take `CCc1ccccc1Nc1nc(N)nc(CCl)n1`: the melting point fell in the range of 146 to 149 °C.

`Cc1cc(Cl)c2cc([N+](=O)[O-])ccc2n1` showed a melting point of 140 to 142 °C.

On to `COc1ccc(N)cc1OCC1CCCO1` (configuration not stated), for which the melting point was in the range of 85 to 87 °C.

For `Cc1cccc(-n2nc(C(=O)O)cc2-c2ccc(-c3ccccc3)cc2)c1`, the melting point lay in the range of 215 to 217 °C.

`BrCCCOc1ccc2ccccc2c1` showed a melting point of 56 to 58 °C.

`O=C(CN1CCNCC1)Nc1ccc(F)cc1` displayed a melting point of 72 to 81 °C.

`CC(C)(C)OC(=O)NC1CCCCC1(C)C(=O)O` (configuration not stated) displayed a melting point of 149 to 151 °C.

Compound `Cc1nc2s[nH]c(=O)c2c(C)c1C` displayed a melting point of 236 to 238 °C.

With `NC(=O)c1csc(C=O)c1`, the melting point fell in the range of 155 to 157 °C.

Compound `NC(=O)c1ccc(Oc2ccc(C(=O)O)cc2)cc1` gave a melting point of 289 to 291 °C.

Compound `CCOCCN1C(=O)C(=O)c2ccccc21` returned a melting point of 65 to 67 °C.

With `CC(C)NC(=O)NN`, the melting point was in the range of 77 to 79 °C.

The compound `COc1nc(C)cc(Cl)n1` gave a melting point of 59 to 61 °C.

`Cn1ncnc1N`: the melting point fell in the range of 180 to 182 °C.

For `O=c1c2ccccc2nc(S)n1-c1nnc[nH]1`, the melting point is 234 to 236 °C.

Compound `COc1ccc(Nc2nnc(S)s2)cc1` showed a melting point of 184 to 186 °C.

With `Cn1cnnc1-c1cncc(O)c1`, the melting point was in the range of 266 to 268 °C.

`Cc1ncc(C(=O)O)c(C)n1`: the melting point was in the range of 151 to 153 °C.

Compound `O=C(Nc1ccc(O)cc1)c1ccco1` yielded a melting point of 218 to 220 °C.

Turning to `Sc1nnc(-c2ccncc2)n1C1CC1`, the melting point lay in the range of 303 to 305 °C.

`Cc1cc(-c2nnn[nH]2)ccc1F`: the melting point was 109 to 111 °C.

For the compound `Cc1c(Cl)nc(N(C)C)nc1Cl`, the melting point fell in the range of 54 to 56 °C.

`O=S(=O)(Cl)c1c(Cl)cc(F)cc1Br` came in with a melting point of 55 to 57 °C.

For `Nc1cccc(N2CCCNC2=O)c1`, the melting point is 229 to 231 °C.

Regarding `Cc1cc(C#N)ccc1NC1CCC(O)CC1` (configuration not stated), the melting point was 119 to 121 °C.

On to `CC(C)(C)Sc1ccc(C(N)=S)cn1`, for which the melting point lay in the range of 178 to 180 °C.

`Oc1ccccc1Oc1ccccn1` yielded a melting point of 110 to 112 °C.

`O=C(O)C1CCN(c2ccc(Cl)c(Cl)c2)C1=O` (configuration not stated) had a melting point of 165 to 167 °C.

In turn, `Cc1cc(Br)ccc1C(=O)N1CCCC(C(=O)O)C1` (configuration not stated) had a melting point of 123 to 125 °C.

For `CCOC(=O)CCc1nc(CC(=O)NC)no1`, the melting point is 84 to 86 °C.

As to `NC(=O)N1CCCC1`, the melting point was in the range of 222 to 224 °C.

Regarding `CC(C)c1ccc(C=CCC(=O)O)cc1`, the melting point is 49 to 51 °C.

`Cc1oncc1C(=O)Nc1cccc(C(=O)O)c1` came in with a melting point of 245 to 247 °C.

In turn, `N#CSCC(=O)c1ccccc1Cl` displayed a melting point of 56 to 58 °C.

Compound `CN(C1CCCCC1)S(=O)(=O)c1ccccc1N` returned a melting point of 98 to 101 °C.

`O=C(O)c1ccc(CN2CCC(CO)CC2)cc1` gave a melting point of 219 to 221 °C.

`CS(=O)(=O)c1cc([N+](=O)[O-])c(Cl)s1` had a melting point of 148 to 150 °C.

`c1ccc2oc(C3CCNCC3)nc2c1` returned a melting point of 111 to 113 °C.

With `CC(Sc1ncccc1C(=O)O)C(=O)N1CCCC1` (configuration not stated), the melting point lay within 192 to 194 °C.

For the compound `CCC(=O)NC=C(Cl)Cl`, the melting point is 93 to 95 °C.

For the compound `CS(=O)(=O)c1ccc(C(=O)O)cc1[N+](=O)[O-]`, the melting point lay within 274 to 276 °C.

The compound `O=C1CCCS(=O)(=O)c2ccccc21` returned a melting point of 151 to 153 °C.

For `NC(=NO)c1cccc(Cn2cnc3ccccc32)c1`, the melting point lay within 226 to 228 °C.

The compound `COC(=O)c1ccc(NS(=O)(=O)c2ccc(C)cc2)cc1` registered a melting point of 150 to 152 °C.

Compound `O=C(O)c1c(Cl)nc2ccccc2c1Cl` gave a melting point of 167 to 169 °C.

Consider `Cc1cc(C(N)C(=O)O)cc(C)c1O` (configuration not stated), for which the melting point was in the range of 203 to 205 °C.

For the compound `O=C(O)c1ccccc1OCCOc1ccccc1`, the melting point was 84 to 86 °C.

For the compound `O=C(O)COc1ccccc1-c1ccccc1`, the melting point fell in the range of 102 to 104 °C.

Consider `CC(C)(C)c1cc(N)n(CCO)n1`, for which the melting point is 102 to 104 °C.

Compound `O=C(c1ccccc1)c1ccccc1Br` had a melting point of 72 to 74 °C.

As for `O=C(O)C1Cc2ccccc2N1` (configuration not stated), the melting point was 168 to 170 °C.

As for `CNC(=O)c1ccc(Cl)nn1`, the melting point was 170 to 172 °C.

In the case of `O=C(NCCCCl)OCc1ccccc1`, the melting point lay within 30 to 32 °C.

Regarding `Nc1cc(C2CCCC2)nn1-c1ccccc1`, the melting point is 80 to 82 °C.

On to `Nc1nnc(Cc2ccc(F)cc2)o1`, for which the melting point lay in the range of 169 to 171 °C.

Take `Cc1ccc(NC(=O)NC(=O)CCl)c(C)c1`: the melting point lay within 159 to 161 °C.

In the case of `O=c1[nH]cnc2c1nnn2-c1ccccc1`, the melting point fell in the range of 279 to 281 °C.

`Nc1nnc(Cc2ccsc2)s1` displayed a melting point of 177 to 179 °C.

The compound `CC1(C)NC(=O)N(c2cccc(C#N)c2)C1=O` registered a melting point of 159 to 161 °C.

As for `Nc1ccc2c(c1)C(=O)NS2(=O)=O`, the melting point lay within 286 to 288 °C.

In turn, `Cc1ccccc1-c1noc(=O)[nH]1` yielded a melting point of 155 to 157 °C.

Regarding `N#CCc1cc(Br)ccc1F`, the melting point was in the range of 43 to 45 °C.

Compound `CC1CCCN1C(=O)c1cc2ccccc2cc1N` (configuration not stated) yielded a melting point of 123 to 125 °C.

With `NS(=O)(=O)c1ccc(C(=O)O)nc1`, the melting point was in the range of 194 to 196 °C.

Compound `Sc1nnc(C2CC2)o1` had a melting point of 131 to 133 °C.

Consider `Nc1nnc(CCCc2ccccc2)o1`, for which the melting point was 165 to 167 °C.

`O=C(O)c1ccc(=O)n(-c2ccc(F)cc2)n1` yielded a melting point of 239 to 241 °C.

The compound `O=C(Nc1cccc(-c2nnco2)c1)OCC(F)(F)F` showed a melting point of 170 to 172 °C.

For the compound `O=C(Nc1cc(F)ccc1C(=O)O)c1cccc(Br)c1`, the melting point fell in the range of 217 to 219 °C.

In turn, `CNc1cc(C(=O)O)cc(Cl)n1` registered a melting point of 259 to 261 °C.

For the compound `O=C(CCl)Nc1ccc(OCc2ccccc2)cc1`, the melting point is 118 to 120 °C.

`COc1ccc(S(N)(=O)=O)cc1C`: the melting point lay within 137 to 139 °C.

The compound `Nc1ccc(OCc2ccncc2)cc1` showed a melting point of 129 to 131 °C.

`Cc1cc(NS(=O)(=O)c2cccc(C#N)c2)no1` came in with a melting point of 159 to 161 °C.

`FC(F)Oc1cccc2cccnc12` gave a melting point of 64 to 66 °C.

`O=C1NC2(CCCC2)C(=O)N1CCBr` yielded a melting point of 97 to 99 °C.

As for `O=C(O)C1CCN(c2ccc(S(=O)(=O)N3CCCCC3)cc2[N+](=O)[O-])CC1`, the melting point is 241 to 243 °C.

On to `COC(=O)c1ccc(S(C)(=O)=O)cc1`, for which the melting point lay in the range of 116 to 118 °C.

`CS(=O)(=O)Cc1nc(=N)o[nH]1` returned a melting point of 158 to 160 °C.

In turn, `O=C(O)C(O)c1cc(Cl)cc(Cl)c1` (configuration not stated) showed a melting point of 99 to 101 °C.

With `CC(N)c1ccccc1-c1ccccc1` (configuration not stated), the melting point fell in the range of 76 to 78 °C.

In the case of `Cc1nccn1-c1ccc(F)cc1N`, the melting point was in the range of 153 to 155 °C.

`O=C(O)CC(NC(=O)OCc1ccccc1)c1ccccc1` (configuration not stated): the melting point is 124 to 126 °C.
